{"source": "paper PMC10536928", "about": "“Discovery of New Pyrrolo[2,3-d]pyrimidine Derivatives as Potential Multi-Targeted Kinase Inhibitors and Apoptosis Inducers” (Pharmaceuticals, 2023)", "format_in_all_cases": "cell-based", "key": {"[1]": {"system": "hepatocellular carcinoma (HepG2)", "experiment": "MTT cytotoxicity assay", "conditions": "Homo sapiens, 24 h exposure, mean ± SD of triplicate", "experimental": "(§1) The cytotoxic effects of compounds 5a–m were evaluated using a standard MTT method against four different cancer cell lines, namely mammary gland cancer (MCF-7), hepatocellular carcinoma (HepG2), breast cancer (MDA-MB-231), and epithelioid cervix carcinoma (HeLa). […] These findings highlight the potential of these compounds as candidates for further development as cytotoxic agents for cancer treatment.\n(§2) The cytotoxicity of compounds 5a–m was assessed against various cancer cell lines and one normal cell line using the described methodology. In brief, the cells were cultured in 96-well plates with a density of 1.0 × 10^4 cells per well, supplemented with 10% fetal bovine serum (FBS), an antibiotic cocktail, and RPMI 11,640 medium. The cells were then incubated for 48 h with 5% CO2 and 100% relative humidity at 37 °C. […] Following treatment, the addition of 20 µL of MTT solution was added to each well and incubation was continued for another 4 h, after which dimethyl sulfoxide (100 µL) was used to dissolve the resulting insoluble formazan. The absorbance was measured at 570 nm using a BioTek EXL 800 plate reader (Agilent Technologies, CA, USA). By comparing the absorbance of treated samples to untreated samples, the relative cell viability percentage was calculated as (A570 of treated samples/A570 of untreated sample) × 100. The IC50 values were determined based on triplicate measurements."}, "[2]": {"system": "mammary gland cancer (MCF-7)", "experiment": "MTT cytotoxicity assay", "conditions": "24 h exposure, mean ± SD of triplicate", "experimental": "as §1, §2"}, "[3]": {"system": "breast cancer (MDA-MB-231)", "experiment": "MTT cytotoxicity assay", "conditions": "Homo sapiens, 24 h exposure, mean ± SD of triplicate", "experimental": "as §1, §2"}, "Bcl-2": {"system": "Bcl-2", "experiment": "Apoptotic protein levels assay (ELISA) in HepG2 cells", "text": "(§3) To validate the mechanism of cell death and the induction of apoptosis caused by compound 5k, the expression levels of some apoptotic proteins were investigated. […] Specifically, the levels of caspase-3 (6.9 folds higher than the control) and Bax (2.6 folds higher than the control) were higher in the group treated with 5k compared to the control group. Caspase-3 is a key enzyme involved in the execution of apoptosis, while Bax is a pro-apoptotic protein that promotes cell death. […] Bcl-2 is a protein that inhibits apoptosis, so the lower levels of Bcl-2 in the 5k treated group further support the notion that treatment with 5k may induce apoptosis in HepG2 cells. […] These findings may have implications for the development of novel therapies for diseases involving abnormal cell death, including cancer. Further studies are warranted in order to elucidate the underlying mechanisms of action of compound 5k and to assess its potential therapeutic applications.\n(§4) The ELISA technique was employed to assess the impact of compound 5k on the alteration of protein levels associated with caspase-3, BAX, and Bcl-2. Specifically, the following ELISA kits were utilized: KHO1091 (InvitrogenTM, Grand Island, NY, USA) for caspase-3, EIA-4860 and EIA-4487 for BAX, (DRU International INC., Mountainside, NJ, USA), and 99-0042 (InvitrogenTM, Grand Island, NY, USA) for Bcl-2 for the respective measurements. The experimental procedures were conducted according to the instructions provided by the manufacturers and our recently published article. Initially, HepG2 cells were cultured in triplicate in 96-well plates. Following a 24-h incubation period, the cells were subjected to various concentrations of compound 5k, while a control group was treated with 0.1% DMSO (V/V). After an additional 24-h incubation, the absorbance levels were assessed using a BioTek Synergy H1 Multi-mode Reader (Agilent Technologies, Santa Clara, CA, USA) at wavelengths ranging from 450 to 650 nm."}, "Bax": {"system": "Bax", "experiment": "Apoptotic protein levels assay (ELISA) in HepG2 cells", "text": "as §3, §4"}, "caspase-3": {"system": "caspase-3", "experiment": "Apoptotic protein levels assay (ELISA) in HepG2 cells", "text": "as §3, §4"}}}
{"compound": "O=C(N/N=C/c1ccc(Cl)c(Cl)c1)c1ccc(Nc2ncnc3[nH]ccc23)cc1", "note": "[Compound 5k, (E)-4-((7H-Pyrrolo[2,3-d]pyrimidin-4-yl)amino)-N’-(3,4-dichlorobenzylidene)benzohydrazide]", "values": [{"measurement": "IC50", "setting": "[1]", "result": "41.5 ± 2.6", "unit": "µM"}, {"measurement": "IC50", "setting": "[2]", "result": "59.1 ± 3.5", "unit": "µM"}, {"measurement": "IC50", "setting": "[2]; Homo sapiens, MCF7, 24 h", "result": 60, "unit": "µM"}, {"measurement": "IC50", "setting": "[3]", "result": "51.4 ± 2.8", "unit": "µM"}, {"measurement": "Bcl-2 level relative to the control", "setting": "Bcl-2", "result": "two-fold lower than the control"}, {"measurement": "Protein Expression (Pg/mL) Bcl-2", "setting": "Bcl-2; 24 h, ELISA, control 11.7 ± 0.36", "result": "5.146 ± 0.09", "unit": "pg/mL"}, {"measurement": "Bax level, folds higher than the control", "setting": "Bax", "result": 2.6, "unit": "folds"}, {"measurement": "Protein Expression (Pg/mL) Bax", "setting": "Bax; 24 h, ELISA, control 67.09 ± 4.94", "result": "173.8 ± 6.61", "unit": "pg/mL"}, {"measurement": "caspase-3 level, folds higher than the control", "setting": "caspase-3", "result": 6.9, "unit": "folds"}, {"measurement": "Protein Expression (Pg/mL) Caspase-3", "setting": "caspase-3; 24 h, ELISA, control 66.28 ± 4.66", "result": "453.8 ± 17.4", "unit": "pg/mL"}]}
